Data on three compounds can be found in patent US20110104695A1, “METHODS OF PREDICTING THERAPEUTIC EFFICACY OF CANCER THERAPY” (Epigenomics AG, priority 2009, published 2011).

Molecules are shown by their SMILES.

For series [1], the system named is TFAP2E. The experiment in a line: TFAP2E mRNA expression by RT-PCR in CRC cell lines after drug treatment. Format: cell-based, human. The procedure:
Colon cancer cell lines LOVO and DLD-1 were obtained from the Deutsche Sammlung von Mikroorganismen und Zellkulturen GmbH (Braunschweig, Germany). SW480, HT-29, HCT-116 and CACO-2 colon cancer cell lines were obtained from ATCC (Washington, D.C., USA). Cells were cultured in 90% DMEM medium supplemented with 10% fetal bovine serum and 2 mM L-glutamine (Invitrogen, Karslruhe, Germany). CACO-2 cells were maintained in 80% DMEM with 20% FBS. […] Culture medium was changed daily for 3 days with recurrent 5-aza-2-deoxycytidine additions. After 3 days, the cells were harvested for total RNA extraction with the RNeasy Total RNA Mini Kit (Qiagen, Hilden, Germany).
The RNA and DNA extraction from cell lines or 10-25 mg of frozen tissue samples was carried out using the RNeasy Total RNA Mini Kit or the QIAmp DNA Mini Kit (Qiagen, Hilden, Germany) respectively, using the manufacturer's instructions.
Genomic DNA was treated with the Epitect Bisulfite Conversion Kit (Qiagen, Hilden, Germany) according to the manufacturer's instructions and then analyzed using the MethyLight technique or MS-HRM as previously described. Cutoff values giving the best discrimination between non-neoplastic mucosa and tumor samples were determined by receiver operating characteristic (ROC) analysis. The expression analysis of the mRNA was performed by RT-PCR with the Verso cDNA Kit (Thermo Fischer, Darmstadt, Germany) according to the manufacturer's instructions.

The test system of another series is colorectal cancer. Nature of the series: Treatment response in colorectal cancer patient cohorts (RECIST or histology). As to conditions: Cohort IV (München), primary rectal cancer, chemoradiotherapy (intravenous 5-FU and 45.0 Gy), 68 patients, histological criteria. Format: in vivo, human.
The subject of another series is SW480 cells. Nature of the series: Cell survival after drug exposure (MTT assay), transfected SW480 cells. A general note: Formazan colour is commonly taken as a measure of viable cells.
The next series has as its system DKK4. The experiment in a line: DKK4 mRNA expression in untransfected CRC cell lines. Format: cell-based, human. To be noted: SW480 and CACO-2 cells; after 5-azacytidine treatment. The procedure: (§1) Colon cancer cell lines LOVO and DLD-1 were obtained from the Deutsche Sammlung von Mikroorganismen und Zellkulturen GmbH (Braunschweig, Germany). SW480, HT-29, HCT-116 and CACO-2 colon cancer cell lines were obtained from ATCC (Washington, D.C., USA). Cells were cultured in 90% DMEM medium supplemented with 10% fetal bovine serum and 2 mM L-glutamine (Invitrogen, Karslruhe, Germany). CACO-2 cells were maintained in 80% DMEM with 20% FBS. Cells were seeded at a density of 1×10^6 cells/60-mm dish, after twenty-four hours incubated with 5-aza-cytidine (final concentration 10 μmol/L; Sigma, Munich, Germany) or the same amount of DMSO as control. Culture medium was changed daily for 3 days with recurrent 5-aza-2-deoxycytidine additions. After 3 days, the cells were harvested for total RNA extraction with the RNeasy Total RNA Mini Kit (Qiagen, Hilden, Germany).
(§2) Genomic DNA was treated with the Epitect Bisulfite Conversion Kit (Qiagen, Hilden, Germany) according to the manufacturer's instructions and then analyzed using the MethyLight technique or MS-HRM as previously described. Cutoff values giving the best discrimination between non-neoplastic mucosa and tumor samples were determined by receiver operating characteristic (ROC) analysis. […]

Series [2] relates to TFAP2E. The experiment in a line: MethyLight analysis of TFAP2E methylation in CRC cell lines. To be noted: all CRC cell lines; after 5-azacytidine treatment. Format: cell-based, human. The procedure: as §1
Primers for methylated TFAP2E covered CpGs in the second CpG island (FIG. 5). […]
as §2

Experimental for colorectal cancer: Samples were obtained from patients undergoing colorectal cancer surgery or chemotherapy at the University Hospitals in Munich, Mannheim, Bochum, Berlin and Dresden (all Germany). Tissues were obtained during resection of the primary tumor or by biopsy. […] Response to chemotherapy was assessed by RECIST criteria, response to chemoradiotherapy by histology as previously described.

Regarding `CC(/C=C/C(=O)NO)=C\[C@@H](C)C(=O)c1ccc(N(C)C)cc1` [Trichostatin A], in the series with TFAP2E [1] (CACO-2 cells, Trichostatin A treatment), the “TFAP2E expression after treatment” value is listed as “weak expression”. The “TFAP2E mRNA levels” value in the series with TFAP2E [1] (CRC cell lines except CACO-2, Trichostatin A treatment) is “no effect”.

With `O=c1[nH]cc(F)c(=O)[nH]1` [5-FU, 5-fluorouracil], the “patients classified as responders” value with colorectal cancer is recorded as 47%. For the same compound, the “responsiveness to 5-FU” value in the series on SW480 cells (SW480 transfected with both pTFAP2E and pcDNA3-Dkk4) was “intermediate responsiveness”. Also, the “decrease in survival compared to controls” value in the series with SW480 cells (SW480 transiently transfected with pTFAP2E, 5-FU 50 μg/ml, after 2 days) was “about 20%”. The “increase in survival compared to controls” value in the series on SW480 cells (SW480 transiently transfected with pcDNA3-Dkk4, 5-FU 50 μg/ml, after 2 days) is reported as “about 10%”.

As for `Nc1ncn([C@@H]2O[C@H](CO)[C@@H](O)[C@H]2O)c(=O)n1` [5-azacytidine], in the series with DKK4, the DKK4 expression entry is on record as “lost”. The “TFAP2E expression (RT-PCR)” value in the series on TFAP2E [1] (CACO-2 and SW480 cells, 5-aza-cytidine 10 μmol/L, 3 days) is “showed expression after 5-aza-cytidine treatment only”. The “TFAP2E methylation (MethyLight)” value in the series on TFAP2E [2] is given as “declined”.
